As a reminder, the solubility is the concentration that dissolves in the medium under given conditions. Lower therefore signals a poorly soluble substance.

The values that follow come from patent US5445832A, “Process for the preparation of microspheres made of a biodegradable polymeric material” (priority 1991, dated 1995).

This series can be described thus: Solubility of the peptide pamoate in water. It is filed as physicochemical. The following applies: in H2O at 40° C. As for the experimental part: (pyro)Glu-His-Trp-Ser-Tyr-D-Trp-Leu-Arg-Pro-Gly-NH2 were converted into the corresponding pamoate, using conventional techniques. After comminution, this salt appears as formed of microparticles of an amorphous structure with an average particle size of approximately 10 microns. Solubility: lesser than 0.025 mg/ml in H2 O at 40° C.

Bounds are passed on as bounds.

Turning to `CC(C)C[C@H](NC(=O)[C@@H](Cc1c[nH]c2ccccc12)NC(=O)[C@H](Cc1ccc(O)cc1)NC(=O)[C@H](CO)NC(=O)[C@H](Cc1c[nH]c2ccccc12)NC(=O)[C@H](Cc1c[nH]cn1)NC(=O)[C@@H]1CCC(=O)N1)C(=O)N[C@@H](CCCNC(=N)N)C(=O)N1CCC[C@H]1C(=O)NCC(N)=O` [pamoate of D-Trp6-LHRH, (pyro)Glu-His-Trp-Ser-Tyr-D-Trp-Leu-Arg-Pro-Gly-NH2], the solubility is less than 25 µg/mL.
